# Assay results from PubChem BioAssay (NCI).
#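 A five-concentration, 48-hour dose response in 96-well plates underlies each endpoint, interpolated linearly between surrounding concentrations. The concentration for full growth arrest is given as TGI.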
# Tests used:
# Test in all cases: NCI anticancer screen, dose series, 48 h
# DU-145 prostate = tested on: DU-145 prostate
# HOP-92 NSCLC = tested on: HOP-92 NSCLC
# UO-31 renal = tested on: UO-31 renal
# A498 renal = tested on: A498 renal
# SF-295 CNS = tested on: SF-295 CNS
# HCT-15 colon = tested on: HCT-15 colon
# MALME-3M melanoma = tested on: MALME-3M melanoma
# SF-539 CNS = tested on: SF-539 CNS
# NCI-H522 lung = tested on: NCI-H522 lung
# NCI-H23 lung = tested on: NCI-H23 lung
# NCI-H226 lung = tested on: NCI-H226 lung
# SF-268 CNS = tested on: SF-268 CNS
# PC-3 prostate = tested on: PC-3 prostate
# M14 melanoma = tested on: M14 melanoma
# MDA-MB-435 = tested on: MDA-MB-435
# OVCAR-3 ovarian = tested on: OVCAR-3 ovarian
# ACHN renal = tested on: ACHN renal
# HT29 colon = tested on: HT29 colon
# RPMI-8226 leukemia = tested on: RPMI-8226 leukemia
# CCRF-CEM leukemia = tested on: CCRF-CEM leukemia
# EKVX NSCLC = tested on: EKVX NSCLC
# SK-MEL-5 melanoma = tested on: SK-MEL-5 melanoma
# SK-MEL-28 melanoma = tested on: SK-MEL-28 melanoma
# NCI/ADR-RES ovarian = tested on: NCI/ADR-RES ovarian
# IGROV1 ovarian = tested on: IGROV1 ovarian
# HS 578T breast = tested on: HS 578T breast
# A549 NSCLC = tested on: A549 NSCLC
# UACC-257 melanoma = tested on: UACC-257 melanoma
# KM12 colon = tested on: KM12 colon
# HL-60(TB) leukemia = tested on: HL-60(TB) leukemia
# BT-549 breast = tested on: BT-549 breast
# SK-OV-3 ovarian = tested on: SK-OV-3 ovarian
# OVCAR-4 ovarian = tested on: OVCAR-4 ovarian
# SNB-19 CNS = tested on: SNB-19 CNS
# CAKI-1 renal = tested on: CAKI-1 renal
# OVCAR-8 ovarian = tested on: OVCAR-8 ovarian
# HOP-62 NSCLC = tested on: HOP-62 NSCLC
# LOX IMVI melanoma = tested on: LOX IMVI melanoma
# K-562 leukemia = tested on: K-562 leukemia
# RXF 393 renal = tested on: RXF 393 renal
# SW-620 colon = tested on: SW-620 colon
# TK-10 renal = tested on: TK-10 renal
# U251 CNS = tested on: U251 CNS
# OVCAR-5 ovarian = tested on: OVCAR-5 ovarian
# SN12C renal = tested on: SN12C renal
# SK-MEL-2 melanoma = tested on: SK-MEL-2 melanoma
# HCT-116 colon = tested on: HCT-116 colon
# SNB-75 CNS = tested on: SNB-75 CNS
# HCC-2998 colon = tested on: HCC-2998 colon
# NCI-H460 lung = tested on: NCI-H460 lung
# MDA-N = tested on: MDA-N
# 786-0 renal = tested on: 786-0 renal
# MDA-MB-231 breast = tested on: MDA-MB-231 breast
# T-47D breast = tested on: T-47D breast
# MCF7 breast = tested on: MCF7 breast
# SR leukemia = tested on: SR leukemia
# MOLT-4 leukemia = tested on: MOLT-4 leukemia
# COLO 205 colon = tested on: COLO 205 colon
# UACC-62 melanoma = tested on: UACC-62 melanoma
compound,measurement,setting,value
Cc1ccc(C)c(C2NC(=O)c3ccccc3N2)c1 (stereo not drawn),TGI,DU-145 prostate,> 50.9 µM
same,TGI,HOP-92 NSCLC,> 100 µM
same,TGI,UO-31 renal,> 100 µM
same,TGI,A498 renal,32 µM
same,TGI,SF-295 CNS,> 33.1 µM
same,TGI,HCT-15 colon,50.6 µM
same,TGI,MALME-3M melanoma,> 95.7 µM
same,TGI,SF-539 CNS,3.07 µM
same,TGI,NCI-H522 lung,3.52 µM
same,TGI,NCI-H23 lung,> 62.1 µM
same,TGI,NCI-H226 lung,20.5 µM
same,TGI,SF-268 CNS,> 100 µM
same,TGI,PC-3 prostate,28.3 µM
same,TGI,M14 melanoma,26.1 µM
same,TGI,MDA-MB-435,0.832 µM
same,TGI,OVCAR-3 ovarian,0.997 µM
same,TGI,ACHN renal,> 89 µM
same,TGI,HT29 colon,> 54.2 µM
same,TGI,RPMI-8226 leukemia,16.4 µM
same,TGI,CCRF-CEM leukemia,> 25.5 µM
same,TGI,EKVX NSCLC,> 100 µM
same,TGI,SK-MEL-5 melanoma,21.3 µM
same,TGI,SK-MEL-28 melanoma,> 100 µM
same,TGI,NCI/ADR-RES ovarian,8.37 µM
same,TGI,IGROV1 ovarian,> 100 µM
same,TGI,HS 578T breast,7.73 µM
same,TGI,A549 NSCLC,> 100 µM
same,TGI,UACC-257 melanoma,> 100 µM
same,TGI,KM12 colon,> 70.8 µM
same,TGI,HL-60(TB) leukemia,0.56 µM
same,TGI,BT-549 breast,> 71.6 µM
same,TGI,SK-OV-3 ovarian,> 75.1 µM
same,TGI,OVCAR-4 ovarian,> 100 µM
same,TGI,SNB-19 CNS,> 49.5 µM
same,TGI,CAKI-1 renal,35.3 µM
same,TGI,OVCAR-8 ovarian,> 79.6 µM
same,TGI,HOP-62 NSCLC,> 87.6 µM
same,TGI,LOX IMVI melanoma,> 100 µM
same,TGI,K-562 leukemia,> 30.1 µM
same,TGI,RXF 393 renal,14.3 µM
same,TGI,SW-620 colon,> 49.6 µM
same,TGI,TK-10 renal,> 100 µM
same,TGI,U251 CNS,17.9 µM
same,TGI,OVCAR-5 ovarian,> 69.7 µM
same,TGI,SN12C renal,> 100 µM
same,TGI,SK-MEL-2 melanoma,72.6 µM
same,TGI,HCT-116 colon,19.8 µM
same,TGI,SNB-75 CNS,15.2 µM
same,TGI,HCC-2998 colon,31.4 µM
same,TGI,NCI-H460 lung,34.5 µM
same,TGI,MDA-N,0.319 µM
same,TGI,786-0 renal,> 64 µM
same,TGI,MDA-MB-231 breast,72.7 µM
same,TGI,T-47D breast,> 100 µM
same,TGI,MCF7 breast,> 84.5 µM
same,TGI,SR leukemia,> 27.4 µM
same,TGI,MOLT-4 leukemia,31.9 µM
same,TGI,COLO 205 colon,7.06 µM
same,TGI,UACC-62 melanoma,> 70.3 µM
Cc1cccc(C)c1NC(=O)Nc1ccc(S(N)(=O)=O)cc1,TGI,DU-145 prostate,> 100 µM
same,TGI,HOP-92 NSCLC,> 100 µM
same,TGI,UO-31 renal,> 100 µM
same,TGI,A498 renal,> 100 µM
same,TGI,SF-295 CNS,> 100 µM
same,TGI,HCT-15 colon,> 100 µM
same,TGI,MALME-3M melanoma,> 100 µM
same,TGI,SF-539 CNS,> 100 µM
same,TGI,NCI-H522 lung,> 100 µM
same,TGI,NCI-H23 lung,> 100 µM
same,TGI,NCI-H226 lung,> 100 µM
same,TGI,SF-268 CNS,> 100 µM
same,TGI,PC-3 prostate,> 100 µM
same,TGI,M14 melanoma,> 100 µM
same,TGI,MDA-MB-435,> 100 µM
same,TGI,OVCAR-3 ovarian,> 100 µM
same,TGI,ACHN renal,> 100 µM
same,TGI,HT29 colon,> 100 µM
same,TGI,RPMI-8226 leukemia,> 100 µM
same,TGI,CCRF-CEM leukemia,> 100 µM
same,TGI,EKVX NSCLC,> 100 µM
same,TGI,SK-MEL-5 melanoma,> 100 µM
same,TGI,SK-MEL-28 melanoma,> 100 µM
same,TGI,NCI/ADR-RES ovarian,> 100 µM
same,TGI,IGROV1 ovarian,> 100 µM
same,TGI,HS 578T breast,> 100 µM
same,TGI,A549 NSCLC,> 100 µM
same,TGI,UACC-257 melanoma,> 100 µM
same,TGI,KM12 colon,> 100 µM
same,TGI,HL-60(TB) leukemia,> 100 µM
same,TGI,BT-549 breast,> 100 µM
same,TGI,SK-OV-3 ovarian,> 100 µM
same,TGI,OVCAR-4 ovarian,> 100 µM
same,TGI,SNB-19 CNS,> 100 µM
same,TGI,CAKI-1 renal,> 100 µM
same,TGI,OVCAR-8 ovarian,> 100 µM
same,TGI,HOP-62 NSCLC,> 100 µM
same,TGI,LOX IMVI melanoma,> 100 µM
same,TGI,K-562 leukemia,> 100 µM
same,TGI,RXF 393 renal,> 100 µM
same,TGI,SW-620 colon,> 100 µM
same,TGI,TK-10 renal,> 100 µM
same,TGI,U251 CNS,> 100 µM
same,TGI,OVCAR-5 ovarian,> 100 µM
same,TGI,SN12C renal,> 100 µM
same,TGI,SK-MEL-2 melanoma,> 100 µM
same,TGI,HCT-116 colon,> 100 µM
same,TGI,SNB-75 CNS,> 100 µM
same,TGI,HCC-2998 colon,> 100 µM
same,TGI,NCI-H460 lung,> 100 µM
same,TGI,MDA-N,> 100 µM
same,TGI,786-0 renal,> 100 µM
same,TGI,MDA-MB-231 breast,> 100 µM
same,TGI,T-47D breast,> 100 µM
same,TGI,MCF7 breast,> 100 µM
same,TGI,SR leukemia,> 100 µM
same,TGI,MOLT-4 leukemia,> 100 µM
same,TGI,COLO 205 colon,> 100 µM
same,TGI,UACC-62 melanoma,> 100 µM
